Experimental data as given in PubChem BioAssay (NCI).
Values joined by “and” are separate entries in the source; they are usually repeats but may differ in a detail not shown here. Equal values may be shown once.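 Assay format: 96-well plates, 48-hour exposure. At the GI50, growth is halved. TGI: concentration producing complete growth inhibition.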

Key:
Assay in all cases: inhibition of tumour cell growth, NCI panel, 48 h
OVCAR-3 ovarian = test system: OVCAR-3 ovarian
HT29 colon = test system: HT29 colon
A549 NSCLC = test system: A549 NSCLC
UO-31 renal = test system: UO-31 renal
COLO 205 colon = test system: COLO 205 colon
RXF 393 renal = test system: RXF 393 renal
CAKI-1 renal = test system: CAKI-1 renal
MOLT-4 leukemia = test system: MOLT-4 leukemia
HOP-62 NSCLC = test system: HOP-62 NSCLC
SK-MEL-28 melanoma = test system: SK-MEL-28 melanoma

Compound | TGI (OVCAR-3 ovarian) [µM] | TGI (HT29 colon) [µM] | TGI (A549 NSCLC) [µM] | TGI (UO-31 renal) | TGI (COLO 205 colon) [µM] | TGI (RXF 393 renal) | TGI (CAKI-1 renal) [µM] | TGI (MOLT-4 leukemia) [µM] | TGI (HOP-62 NSCLC) [µM] | TGI (SK-MEL-28 melanoma) [µM] | GI50 (OVCAR-3 ovarian) [µM] | GI50 (HT29 colon) [µM] | GI50 (UO-31 renal) [µM] | GI50 (COLO 205 colon) [µM] | GI50 (RXF 393 renal) [µM] | GI50 (CAKI-1 renal) [µM] | GI50 (MOLT-4 leukemia) [µM] | GI50 (HOP-62 NSCLC) [µM] | GI50 (SK-MEL-28 melanoma) [µM] | GI50 (A549 NSCLC) [µM]
CN1CCc2c1nc(-c1ccc([N+](=O)[O-])cc1)c1c2N(C)CC1 | > 100 | > 100 | > 100 | > 100 µM | > 100 | > 100 µM | > 100 | > 100 | > 100 | – | – | – | – | – | – | – | – | – | – | –
COc1ccc(CCc2cc(OC)c(OC)c(OC)c2)cc1 | 0.523 | 1.44 | 88.8 | 83.2 µM | 0.189 | 0.057 µM | 20.4 | 6.26 | 14 | > 61.3 | – | – | – | – | – | – | – | – | – | –
S=c1nc(-c2ccnc(-c3nc(=S)[nH][nH]3)c2)[nH][nH]1 | > 100 | > 100 | > 100 | > 100 µM | > 100 | > 100 µM | > 100 | > 100 | > 100 | > 100 | – | – | – | – | – | – | – | – | – | –
COc1cc2cc3c4c(cc(OC)c(OC)c4c2cc1OC)CCN3C(=O)CCC(=O)NCCCN(C)C | > 100 | 51.7 | > 100 | > 100 µM | > 100 | > 100 µM | > 100 | > 100 | > 100 | > 100 | – | – | – | – | – | – | – | – | – | –
OCNCCNc1nc2ccccc2c2[nH]c3ccccc3c12 | 3.67 | > 50 | – | > 50 µM | > 50 | 5.85 µM | 7.38 | > 50 | 1.92 | 6.84 | 1.31 | 0.556 | 2.98 | 1.76 | 1.11 | 2.01 | 0.809 | 0.371 | 1.01 | –
CC(NC(=O)c1ccccc1)(C(=O)O)C(=O)O | > 100 | > 100 | > 100 | > 100 µM | > 100 | > 100 µM | > 100 | > 100 | > 100 | > 100 | – | – | – | – | – | – | – | – | – | –
Oc1[nH]c2cc(Cl)ccc2c1/C=c1/ccc2c(c1)N=C(c1cc(F)cc(F)c1)N=2 | 3.3 | 5.94 | 5.44 | 19 µM | 5.29 | 6.27 µM | 16.6 | 5.72 | 8.44 | 13.6 | 1.41 | 1.72 | 3.68 | 2.24 | 2.08 | 1.73 | 1.45 | 1.35 | 2.78 | 1.64
CCOC(=O)[C@H]1Nc2ccccc2C2c3ccccc3CC21 (some centres undefined) | > 100 | 37.2 | > 100 | > 100 µM | > 100 | 31.1 µM | > 100 | > 100 | > 100 | > 100 | – | – | – | – | – | – | – | – | – | –
COC(=O)c1c(C)nc(C)c(NO)c1-c1ccccc1C(F)(F)F | 30.3 | 33.7 | > 100 | 74.2 µM | 70.2 | 32 µM | 43.3 | > 100 | > 100 | 38.1 | – | – | – | – | – | – | – | – | – | –
CN(C=O)/C=C/c1cc(O)ccc1O | 32.5 | 49.2 | > 100 | 47 µM | 45.4 | 34.1 µM | 38.9 | 29.4 | > 71.5 | > 58.3 | – | – | – | – | – | – | – | – | – | –
Nc1ccc2c(c1)c(N)nn2C(=O)Nc1ccc(Cc2ccccc2)cc1 | 28.3 | 17.2 | 57.1 | 32.6 µM | 26.5 | 43.9 µM | 26.8 | 24.3 | 27 | 27.8 | 12.1 | 4.51 | 4.72 | 13.1 | 21.4 | 4.3 | 4.48 | 11.2 | 13.7 | 6.58
COc1cnc2cc(C(=O)O)c3ccccc3c2c1 | > 100 | > 100 | > 100 | > 100 µM | > 100 | > 100 µM | > 100 | > 100 | > 100 | > 100 | – | – | – | – | – | – | – | – | – | –
Cc1nc(N)nc2ccccc12 | > 100 | > 100 | > 100 | > 100 µM | > 100 | > 100 µM | > 100 | > 100 | > 100 | > 100 | – | – | – | > 100 | – | – | – | – | – | –
CO[C@@]12[C@@H]3NC3CN1C1=C(C(=O)C(N)=C(C)C1=O)[C@@H]2COC(N)=O (some centres undefined) | 3.07 | 5.24 | 3.62 | 3.04 µM | 2.3 | 4.16 µM | 2.08 | – | 8.21 | 5.47 | 1.07 | – | 0.465 | 0.55 | 1.27 | – | 0.278 | – | 1.39 | –
COC(=O)[C@@H]1CN(C(=O)c2ccccc2)C(=O)N1C(=O)OCc1ccccc1 | > 100 | > 100 | > 100 | > 100 µM | > 100 | > 100 µM | > 100 | > 100 | > 100 | > 100 | – | – | – | – | – | – | – | – | – | –
O=C(NCCCCCCCNC(=O)OCc1ccc2c(Cl)cc(Cl)c(O)c2n1)OCc1ccc2c(Cl)cc(Cl)c(O)c2n1 | 0.838 | 2.46 | 3.76 | 1.29 µM | 2 | 2.13 µM | 1.55 | 2 | 3.22 | 2.42 | 0.298 | 0.538 | 0.321 | 0.564 | 0.812 | 0.378 | 0.367 | 1.4 | 1.17 | 1.85
CC1COCC(C)N1C1=C(Cl)C(=O)c2ccccc2C1=O (centres undefined) | 2.92 | 45.6 | 32.2 | 2.73 µM | 27 | 4.22 µM | 2.97 | 7.5 | 27.4 | 27.9 | 1.56 | 17.5 | 1.39 | 13.3 | 1.9 | 1.56 | 2.77 | 14 | 14.2 | 17
COc1cccc(/C=C/C(=O)c2cc3c(N)c(C(=O)Nc4cccc5ccccc45)sc3nc2C)c1 | 2.07 | 2.06 | > 50 | 2.08 µM | 34.2 | 1.9 µM | 6.34 | > 50 | 3.21 | – | 0.892 | 0.65 | 0.889 | 1.71 | 0.803 | 1.6 | 1.46 | 1.14 | – | 1.46
COc1ccc(C(O)CC(O)(C(F)(F)F)C(F)(F)F)cc1 (centres undefined) | 69.8 | > 100 | > 100 | > 100 µM | 33.8 | 62 µM | 55.1 | > 100 | > 100 | > 100 | – | – | – | – | – | – | – | – | – | –
Nc1ccc(S(=O)(=O)Nc2cnc3c(Cl)cccc3n2)cc1 | 411 | > 750 | > 750 | > 56.2 µM and 742 µM | 193 | > 31.6 µM and 460 µM | > 698 | 565 | 188 | 723 | – | > 82.8 | > 55.8 | > 74.3 | 9.52 | 99.2 | 65.6 | 24.6 | > 69.4 | –
NS(=O)(=O)c1ccc(NNc2c3ccccc3nc3c(C(=O)Nc4ccc(S(=O)(=O)Nc5ncccn5)cc4)cccc23)cc1 | > 25 | > 25 | > 25 | > 25 µM | > 25 | > 25 µM | > 25 | > 25 | > 25 | > 25 | – | – | – | – | – | – | – | – | – | –
O=C1C=CC2(C=C1)C[C@H](NC(=O)C(F)(F)F)C(=O)O2 | > 100 | > 100 | > 100 | > 100 µM | > 100 | > 100 µM | > 100 | > 100 | > 100 | 38.3 | – | – | – | – | – | – | – | – | – | –
COc1cc(/C=C(\C#N)C(N)=C(C#N)C#N)cc(O)c1O | > 100 | > 100 | > 100 | > 100 µM | > 100 | > 100 µM | > 100 | > 100 | > 100 | > 100 | – | – | – | – | – | – | – | – | – | –
Cc1cc(Cl)ccc1Nc1nc(C(F)(F)F)ccc1C(=O)N1CCN(c2cccc(Cl)c2)CC1 | > 100 | > 100 | > 100 | > 100 µM | > 100 | > 100 µM | > 100 | > 100 | > 100 | > 100 | 7.82 | 46.1 | 67.3 | > 100 | > 100 | 90.7 | 19.6 | > 100 | > 100 | > 100
Cc1cc(Cl)cc2c1NC(=O)C2=O (tested in a mixture with another compound) | > 100 | > 100 | > 100 | > 100 µM | > 100 | > 100 µM | > 100 | 54.7 | > 100 | > 100 | – | – | – | – | – | – | – | – | – | –
Nc1[nH]c(=O)ncc1CO | > 100 | > 100 | > 100 | > 100 µM | > 100 | > 100 µM | > 100 | > 100 | > 100 | > 100 | > 100 | > 100 | > 100 | > 100 | > 100 | > 100 | > 100 | > 100 | > 100 | > 100
